This is an account of results in paper PMC4081560 (PLoS ONE, 2014).

The subject of this assay is tested viruses (K/09, rK09/NA:Y275, K/2785). The class given is cell-based, 2009 pandemic H1N1 virus. Particulars: read-out: concentration sufficient to restrict viral replication (EC50).

As to `NC(=O)c1nc(F)cnc1O` [Favipiravir, 6-fluoro-3-hydroxy-2-pyrazinecarboxamide], the EC50 was in the range of 8.39 to 14.7 µM.
